Laboratory results reported in article PMC9481151, “Discovery of new symmetrical and asymmetrical nitrile-containing 1,4-dihydropyridine derivatives as dual kinases and P-glycoprotein inhibitors: synthesis, in vitro assays, and in silico studies” (Journal of Enzyme Inhibition and Medicinal Chemistry, 2022).

What was measured:
[1] = system: BT-549; experiment: NCI single dose (10 µM) SRB screen; format: cell-based, human; conditions: breast cancer, 48 h
[2] = system: EKVX; experiment: NCI single dose (10 µM) SRB screen; format: cell-based, human; conditions: non-small cell lung cancer, 48 h
[3] = system: HCT-15; experiment: NCI single dose (10 µM) SRB screen; format: cell-based, human; conditions: colon cancer, 48 h
[4] = system: UO-31; experiment: NCI single dose (10 µM) SRB screen; format: cell-based, human; conditions: renal cancer, 48 h
[5] = system: Candida albicans; experiment: Agar well diffusion method; conditions: for zone of inhibition at 1000 µg/mL: Candida albicans, 24 h, read-out: Diameter of inhibition zone, C. albicans; for % activity index, C. albicans: relative to clotrimazole
[6] = system: HOP-62; experiment: NCI single dose (10 µM) SRB screen; format: cell-based, human; conditions: non-small cell lung cancer, 48 h
[7] = system: HOP-92; experiment: NCI single dose (10 µM) SRB screen; format: cell-based, human; conditions: non-small cell lung cancer, 48 h
[8] = system: HS578T; experiment: NCI single dose (10 µM) SRB screen; format: cell-based, human; conditions: breast cancer, 48 h
[9] = system: HCC-2998; experiment: NCI single dose (10 µM) SRB screen; format: cell-based, human; conditions: colon cancer, 48 h
[10] = system: MDA-MB-231; experiment: NCI single dose (10 µM) SRB screen; format: cell-based, human; conditions: breast cancer, 48 h
[11] = system: SK-MEL-2; experiment: NCI single dose (10 µM) SRB screen; format: cell-based, human; conditions: melanoma, 48 h
[12] = system: UACC-62; experiment: NCI single dose (10 µM) SRB screen; format: cell-based, human; conditions: melanoma, 48 h
[13] = system: Pseudomonas aeruginosa; experiment: Agar well diffusion method; conditions: for zone of inhibition at 1000 µg/mL: Pseudomonas aeruginosa, 24 h, read-out: Diameter of inhibition zone, P. aeruginosa; for % activity index, P. aeruginosa: relative to ciprofloxacin
[14] = system: T-47D; experiment: NCI single dose (10 µM) SRB screen; format: cell-based, human; conditions: breast cancer, 48 h
[15] = system: K-562; experiment: NCI single dose (10 µM) SRB screen; format: cell-based, human; conditions: leukaemia, 48 h

## COC(=O)C1=C(C)NC(C)=C(C(=O)OCC(C)C)C1c1cccc(C#N)c1 (racemic) [Compound 2b, (±)-3-Isobutyl 5-methyl 4-(3-cyanophenyl)-2,6-dimethyl-1,4-dihydropyridine-3,5-dicarboxylate]
[1]
  GI% BT-549: – (Only GI% ≥ 10 are shown)
[2]
  GI% EKVX: 12%
[3]
  GI% HCT-15: – (Only GI% ≥ 10 are shown)
[4]
  GI% UO-31: 11%
[5]
  zone of inhibition at 1000 µg/mL: 7 mm
  % activity index, C. albicans: 25.9%
[6]
  GI% HOP-62: – (Only GI% ≥ 10 are shown)
[7]
  GI% HOP-92: 17%
[8]
  GI% HS578T: 14%
[9]
  GI% HCC-2998: – (Only GI% ≥ 10 are shown)
[10]
  GI% MDA-MB-231: – (Only GI% ≥ 10 are shown)
[11]
  GI% SK-MEL-2: – (Only GI% ≥ 10 are shown)
[12]
  GI% UACC-62: 21%
[13]
  zone of inhibition at 1000 µg/mL: 13 mm
  % activity index, P. aeruginosa: 56.5%
[14]
  GI% T-47D: 25%
other
  melting point: 133 to 135 °C
[15]
  GI% K-562: 15%

## COCCOC(=O)C1=C(C)NC(C)=C(C(=O)OC)C1c1cccc(C#N)c1 (racemic) [Compound 2d, (±)-3-(2-Methoxyethyl) 5-methyl 4-(3-cyanophenyl)-2,6-dimethyl-1,4-dihydropyridine-3,5-dicarboxylate]
[1]
  GI% BT-549: – (Only GI% ≥ 10 are shown)
[2]
  GI% EKVX: – (Only GI% ≥ 10 are shown)
[3]
  GI% HCT-15: – (Only GI% ≥ 10 are shown)
[4]
  GI% UO-31: – (Only GI% ≥ 10 are shown)
[5]
  zone of inhibition at 1000 µg/mL: 12 mm
  % activity index, C. albicans: 44.4%
[6]
  GI% HOP-62: – (Only GI% ≥ 10 are shown)
[7]
  GI% HOP-92: – (Only GI% ≥ 10 are shown)
[8]
  GI% HS578T: – (Only GI% ≥ 10 are shown)
[9]
  GI% HCC-2998: – (Only GI% ≥ 10 are shown)
[10]
  GI% MDA-MB-231: – (Only GI% ≥ 10 are shown)
[11]
  GI% SK-MEL-2: – (Only GI% ≥ 10 are shown)
[12]
  GI% UACC-62: – (Only GI% ≥ 10 are shown)
[13]
  zone of inhibition at 1000 µg/mL: 14 mm
  % activity index, P. aeruginosa: 60.9%
[14]
  GI% T-47D: – (Only GI% ≥ 10 are shown)
other
  melting point: 127 to 128 °C
[15]
  GI% K-562: – (Only GI% ≥ 10 are shown)

## CCOC(=O)C1=C(C)NC(C)=C(C(=O)OC(C)C)C1c1cccc(C#N)c1 (racemic) [Compound 2h, (±)-3-Ethyl 5-isopropyl 4-(3-cyanophenyl)-2,6-dimethyl-1,4-dihydropyridine-3,5-dicarboxylate]
[1]
  GI% BT-549: – (Only GI% ≥ 10 are shown)
[2]
  GI% EKVX: – (Only GI% ≥ 10 are shown)
[3]
  GI% HCT-15: – (Only GI% ≥ 10 are shown)
[4]
  GI% UO-31: – (Only GI% ≥ 10 are shown)
[5]
  zone of inhibition at 1000 µg/mL: 8 mm
  % activity index, C. albicans: 29.6%
[6]
  GI% HOP-62: – (Only GI% ≥ 10 are shown)
[7]
  GI% HOP-92: – (Only GI% ≥ 10 are shown)
[8]
  GI% HS578T: – (Only GI% ≥ 10 are shown)
[9]
  GI% HCC-2998: – (Only GI% ≥ 10 are shown)
[10]
  GI% MDA-MB-231: – (Only GI% ≥ 10 are shown)
[11]
  GI% SK-MEL-2: – (Only GI% ≥ 10 are shown)
[12]
  GI% UACC-62: – (Only GI% ≥ 10 are shown)
[13]
  zone of inhibition at 1000 µg/mL: 10 mm
  % activity index, P. aeruginosa: 43.5%
[14]
  GI% T-47D: – (Only GI% ≥ 10 are shown)
other
  melting point: 136 to 138 °C
[15]
  GI% K-562: – (Only GI% ≥ 10 are shown)

## CC1=C(C(=O)OC(C)C)C(c2cccc(C#N)c2)C(C(=O)OC(C)C)=C(C)N1 [Compound 1c, Diisopropyl 4-(3-cyanophenyl)-2,6-dimethyl-1,4-dihydropyridine-3,5-dicarboxylate]
[1]
  GI% BT-549: – (Only GI% ≥ 10 are shown)
[2]
  GI% EKVX: – (Only GI% ≥ 10 are shown)
[3]
  GI% HCT-15: 10%
[4]
  GI% UO-31: – (Only GI% ≥ 10 are shown)
[5]
  zone of inhibition at 1000 µg/mL: 10 mm
  % activity index, C. albicans: 37%
[6]
  GI% HOP-62: – (Only GI% ≥ 10 are shown)
[8]
  GI% HS578T: – (Only GI% ≥ 10 are shown)
[9]
  GI% HCC-2998: – (Only GI% ≥ 10 are shown)
[10]
  GI% MDA-MB-231: – (Only GI% ≥ 10 are shown)
[11]
  GI% SK-MEL-2: – (Only GI% ≥ 10 are shown)
[12]
  GI% UACC-62: 14%
[13]
  zone of inhibition at 1000 µg/mL: 8 mm
  % activity index, P. aeruginosa: 34.8%
[14]
  GI% T-47D: 30%
other
  melting point: 124 to 125 °C
[15]
  GI% K-562: 25%
